According to patent publication US20020137929A1, “1 - (3-heterocyclylphenyl) isothiourea, -isourea, -guanidine and -amidine herbicidal agents” (Intellectual Property Department, BASF Aktiengesellschaft, priority 1998, published 2002):

Columns and labels:
[1] = test system: ECHCG (Barnyardgrass); assay: Postemergence herbicidal evaluation; assay type: in vivo, Echinochloa crus-galli
Method in brief: (§1)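 Young plants, roughly two weeks from seeding, receive the active ingredient as a sprayed dispersion (acetone/water 50/50, 0.5% TWEEN 20) at 40 psi. Doses span about 0.0156 to 0.500 kg/ha. A visual score from 0 to 9 compares treated with control plants four to five weeks on.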

[2] = test system: ECHORC (Watergrass (Calif.)); assay: Postemergence weed control under flooded paddy conditions; assay type: in vivo, Echinochloa oryzoides; settings: postemergence weeds, 3-4 weeks after treatment
Method in brief: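 Flood-water application, about 0.0313–0.500 kg/ha a.i. in aqueous/acetone 50/50 v/v; water depth 1.5–3 cm throughout. Weeds 3–5 cm, rice 1.5–2.5 leaf. Greenhouse; 0–9 visual rating vs control at 3–4 wk.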

[3] = test system: CASOB (Sicklepod); assay: Preemergence herbicidal evaluation; assay type: in vivo, Cassia obtusifolia; settings: rated 4-5 weeks after treatment
Method in brief: (§2)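 Steps: mix seeds into potting soil; plant atop ~1 inch soil; spray compound in aqueous acetone (~0.0156-0.500 kg/ha equivalent); maintain in greenhouse with watering; rate visually 0-9 versus control at 4-5 weeks.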

[4] = test system: TRZAWR (Wheat, Winter, cv Riband); assay: Postemergence herbicidal evaluation; assay type: in vivo, Triticum aestivum
Method in brief: as §1

[5] = test system: IPOHE (Morningglory, Ivyleaf); assay: Postemergence herbicidal evaluation; assay type: in vivo, Ipomoea hederacea
Method in brief: as §1

[6] = test system: AMBEL (Ragweed, Common); assay: Postemergence herbicidal evaluation; assay type: in vivo, Ambrosia artemisifolia
Method in brief: as §1

[7] = test system: CHEAL (Lambsquarters, Common); assay: Preemergence herbicidal evaluation; assay type: in vivo, Chenopodium album; settings: rated 4-5 weeks after treatment
Method in brief: as §2

[8] = test system: ECHCG (Barnyardgrass); assay: Preemergence herbicidal evaluation; assay type: in vivo, Echinochloa crus-galli; settings: rated 4-5 weeks after treatment
Method in brief: as §2

[9] = test system: GLXMAW (Soybean, Williams); assay: Postemergence herbicidal evaluation; assay type: in vivo, Glycine max, (L.) Merr. cv Williams
Method in brief: as §1

[10] = test system: SETVI (Foxtail, Green); assay: Postemergence herbicidal evaluation; assay type: in vivo, Setaria viridis
Method in brief: as §1

[11] = test system: IPOHE (Morningglory, Ivyleaf); assay: Preemergence herbicidal evaluation; assay type: in vivo, Ipomoea hederacea; settings: rated 4-5 weeks after treatment
Method in brief: as §2

[12] = test system: ZEAMX (Corn, Field); assay: Preemergence herbicidal evaluation; assay type: in vivo, Zea mays; settings: rated 4-5 weeks after treatment
Method in brief: as §2

[13] = test system: GALAP (Galium); assay: Preemergence herbicidal evaluation; assay type: in vivo, Galium aparine; settings: rated 4-5 weeks after treatment
Method in brief: as §2

[14] = test system: ABUTH (Velvetleaf); assay: Postemergence herbicidal evaluation; assay type: in vivo, Abutilon theophrasti
Method in brief: as §1

COC(=O)CCN1C(=O)CSC1=Nc1cc(-n2c(=O)cc(C(F)(F)F)n(C)c2=O)c(F)cc1Cl [Compound 28, Methyl 2-{{2-chloro-5-[3,6-dihydro-3-methyl-2,6-dioxo-4-(trifluoromethyl)-1(2H)-pyrimidinyl]-4-fluorophenyl}imino}-4-oxo-3-thiazolidinepropionate]
0.0: Postemergence herbicidal rating ECHCG ([1]; Rate 0.0158 kg/ha) | Herbicidal rating ECHORC ([2]; rate 0.0313 kg/ha) | Preemergence herbicidal rating CASOB ([3]; rate 0.0625 kg/ha) | Preemergence herbicidal rating CASOB ([3]; rate 0.1250 kg/ha) | Preemergence herbicidal rating CASOB ([3]; rate 0.2500 kg/ha) | Preemergence herbicidal rating CHEAL ([7]; rate 0.0625 kg/ha) | Preemergence herbicidal rating ECHCG ([8]; rate 0.0625 kg/ha) | Postemergence herbicidal rating SETVI ([10]; Rate 0.0158 kg/ha) | Preemergence herbicidal rating IPOHE ([11]; rate 0.0625 kg/ha) | Preemergence herbicidal rating GALAP ([13]; rate 0.0625 kg/ha) | Preemergence herbicidal rating GALAP ([13]; rate 0.1250 kg/ha)
8.5: Postemergence herbicidal rating GLXMAW ([9]; Rate 0.0630 kg/ha)
4.0: Herbicidal rating ECHORC ([2]; rate 0.0625 kg/ha) | Postemergence herbicidal rating AMBEL ([6]; Rate 0.0158 kg/ha) | Postemergence herbicidal rating AMBEL ([6]; Rate 0.0315 kg/ha)
2.0: Preemergence herbicidal rating IPOHE ([11]; rate 0.1250 kg/ha)
5.0: Postemergence herbicidal rating ECHCG ([1]; Rate 0.0315 kg/ha) | Postemergence herbicidal rating TRZAWR ([4]; Rate 0.0158 kg/ha) | Postemergence herbicidal rating TRZAWR ([4]; Rate 0.0315 kg/ha) | Preemergence herbicidal rating ZEAMX ([12]; rate 0.0625 kg/ha)
8.0: Postemergence herbicidal rating GLXMAW ([9]; Rate 0.0315 kg/ha) | Preemergence herbicidal rating ZEAMX ([12]; rate 0.2500 kg/ha)
7.0: Herbicidal rating ECHORC ([2]; rate 0.1250 kg/ha)
6.5: Postemergence herbicidal rating TRZAWR ([4]; Rate 0.0630 kg/ha) | Postemergence herbicidal rating GLXMAW ([9]; Rate 0.0158 kg/ha)
9.0: Postemergence herbicidal rating ECHCG ([1]; Rate 0.0630 kg/ha) | Herbicidal rating ECHORC ([2]; rate 0.2500 kg/ha) | Postemergence herbicidal rating IPOHE ([5]; Rate 0.0158 kg/ha) | Postemergence herbicidal rating IPOHE ([5]; Rate 0.0315 kg/ha) | Postemergence herbicidal rating IPOHE ([5]; Rate 0.0630 kg/ha) | Postemergence herbicidal rating AMBEL ([6]; Rate 0.0630 kg/ha) | Preemergence herbicidal rating CHEAL ([7]; rate 0.1250 kg/ha) | Preemergence herbicidal rating CHEAL ([7]; rate 0.2500 kg/ha) | Preemergence herbicidal rating ECHCG ([8]; rate 0.1250 kg/ha) | Preemergence herbicidal rating ECHCG ([8]; rate 0.2500 kg/ha) | Postemergence herbicidal rating SETVI ([10]; Rate 0.0315 kg/ha) | Postemergence herbicidal rating SETVI ([10]; Rate 0.0630 kg/ha) | Preemergence herbicidal rating IPOHE ([11]; rate 0.2500 kg/ha) | Preemergence herbicidal rating ZEAMX ([12]; rate 0.1250 kg/ha) | Preemergence herbicidal rating GALAP ([13]; rate 0.2500 kg/ha) | Postemergence herbicidal rating ABUTH ([14]; Rate 0.0158 kg/ha) | Postemergence herbicidal rating ABUTH ([14]; Rate 0.0315 kg/ha) | Postemergence herbicidal rating ABUTH ([14]; Rate 0.0630 kg/ha)

Cn1c(C(F)(F)F)cc(=O)n(-c2cc(N=C3SCC(=O)N3CCC(=O)O)c(Cl)cc2F)c1=O [Compound 30, 2-{{2-Chloro-5-[3,6-dihydro-3-methyl-2,6-dioxo-4-(trifluoromethyl)-1(2H)-pyrimidinyl]-4-fluorophenyl}imino}-4-oxo-3-thiazolidinepropionic acid]
0.0: Postemergence herbicidal rating ECHCG ([1]; Rate 0.0158 kg/ha) | Postemergence herbicidal rating ECHCG ([1]; Rate 0.0315 kg/ha) | Postemergence herbicidal rating ECHCG ([1]; Rate 0.0630 kg/ha) | Herbicidal rating ECHORC ([2]; rate 0.1250 kg/ha) | Herbicidal rating ECHORC ([2]; rate 0.2500 kg/ha) | Preemergence herbicidal rating CASOB ([3]; rate 0.0313 kg/ha) | Preemergence herbicidal rating CASOB ([3]; rate 0.0625 kg/ha) | Postemergence herbicidal rating IPOHE ([5]; Rate 0.0158 kg/ha) | Postemergence herbicidal rating IPOHE ([5]; Rate 0.0315 kg/ha) | Postemergence herbicidal rating AMBEL ([6]; Rate 0.0158 kg/ha) | Postemergence herbicidal rating AMBEL ([6]; Rate 0.0315 kg/ha) | Preemergence herbicidal rating CHEAL ([7]; rate 0.0313 kg/ha) | Preemergence herbicidal rating CHEAL ([7]; rate 0.0625 kg/ha) | Preemergence herbicidal rating ECHCG ([8]; rate 0.0313 kg/ha) | Preemergence herbicidal rating ECHCG ([8]; rate 0.0625 kg/ha) | Preemergence herbicidal rating ECHCG ([8]; rate 0.1250 kg/ha) | Preemergence herbicidal rating ECHCG ([8]; rate 0.2500 kg/ha) | Postemergence herbicidal rating SETVI ([10]; Rate 0.0158 kg/ha) | Postemergence herbicidal rating SETVI ([10]; Rate 0.0315 kg/ha) | Postemergence herbicidal rating SETVI ([10]; Rate 0.0630 kg/ha) | Preemergence herbicidal rating IPOHE ([11]; rate 0.0313 kg/ha) | Preemergence herbicidal rating IPOHE ([11]; rate 0.0625 kg/ha) | Preemergence herbicidal rating GALAP ([13]; rate 0.0313 kg/ha) | Preemergence herbicidal rating GALAP ([13]; rate 0.0625 kg/ha)
1.0: Preemergence herbicidal rating CASOB ([3]; rate 0.1250 kg/ha) | Preemergence herbicidal rating CASOB ([3]; rate 0.2500 kg/ha) | Postemergence herbicidal rating AMBEL ([6]; Rate 0.0630 kg/ha) | Preemergence herbicidal rating IPOHE ([11]; rate 0.1250 kg/ha) | Preemergence herbicidal rating ZEAMX ([12]; rate 0.0313 kg/ha) | Preemergence herbicidal rating GALAP ([13]; rate 0.1250 kg/ha)
5.5: Postemergence herbicidal rating TRZAWR ([4]; Rate 0.0630 kg/ha)
3.0: Preemergence herbicidal rating ZEAMX ([12]; rate 0.0625 kg/ha) | Preemergence herbicidal rating ZEAMX ([12]; rate 0.1250 kg/ha) | Postemergence herbicidal rating ABUTH ([14]; Rate 0.0158 kg/ha)
9.0: Postemergence herbicidal rating IPOHE ([5]; Rate 0.0630 kg/ha) | Preemergence herbicidal rating CHEAL ([7]; rate 0.1250 kg/ha) | Preemergence herbicidal rating CHEAL ([7]; rate 0.2500 kg/ha) | Preemergence herbicidal rating GALAP ([13]; rate 0.2500 kg/ha) | Postemergence herbicidal rating ABUTH ([14]; Rate 0.0315 kg/ha) | Postemergence herbicidal rating ABUTH ([14]; Rate 0.0630 kg/ha)
6.5: Postemergence herbicidal rating GLXMAW ([9]; Rate 0.0158 kg/ha) | Postemergence herbicidal rating GLXMAW ([9]; Rate 0.0315 kg/ha) | Postemergence herbicidal rating GLXMAW ([9]; Rate 0.0630 kg/ha)
6.0: Preemergence herbicidal rating ZEAMX ([12]; rate 0.2500 kg/ha)
4.0: Postemergence herbicidal rating TRZAWR ([4]; Rate 0.0158 kg/ha)
4.5: Postemergence herbicidal rating TRZAWR ([4]; Rate 0.0315 kg/ha)
2.0: Preemergence herbicidal rating IPOHE ([11]; rate 0.2500 kg/ha)

Cn1c(C(F)(F)F)cc(=O)n(-c2cc(N=C3SCC(=O)N3CCC(=O)O)c(Cl)cc2F)c1=O [Compound 31, 2-{{2-Chloro-5-[3,6-dihydro-3-methyl-2,6-dioxo-4-(trifluoromethyl)-1(2H)-pyrimidinyl]-4-fluoro-phenyl}imino}-4-oxo-3-thiazolidinepropionic acid]
6.5: Postemergence herbicidal rating TRZAWR ([4]; Rate 0.0630 kg/ha) | Postemergence herbicidal rating GLXMAW ([9]; Rate 0.0158 kg/ha) | Postemergence herbicidal rating GLXMAW ([9]; Rate 0.0315 kg/ha)
6.0: Preemergence herbicidal rating GALAP ([13]; rate 0.2500 kg/ha)
2.0: Herbicidal rating ECHORC ([2]; rate 0.1250 kg/ha) | Preemergence herbicidal rating CASOB ([3]; rate 0.1250 kg/ha) | Postemergence herbicidal rating AMBEL ([6]; Rate 0.0315 kg/ha)
1.0: Herbicidal rating ECHORC ([2]; rate 0.0625 kg/ha) | Preemergence herbicidal rating CASOB ([3]; rate 0.2500 kg/ha)
5.0: Postemergence herbicidal rating ECHCG ([1]; Rate 0.0630 kg/ha) | Herbicidal rating ECHORC ([2]; rate 0.2500 kg/ha) | Postemergence herbicidal rating TRZAWR ([4]; Rate 0.0158 kg/ha) | Preemergence herbicidal rating IPOHE ([11]; rate 0.1250 kg/ha)
5.5: Postemergence herbicidal rating TRZAWR ([4]; Rate 0.0315 kg/ha)
7.0: Postemergence herbicidal rating AMBEL ([6]; Rate 0.0630 kg/ha) | Postemergence herbicidal rating GLXMAW ([9]; Rate 0.0630 kg/ha) | Postemergence herbicidal rating SETVI ([10]; Rate 0.0630 kg/ha) | Preemergence herbicidal rating ZEAMX ([12]; rate 0.1250 kg/ha)
0.0: Postemergence herbicidal rating ECHCG ([1]; Rate 0.0158 kg/ha) | Postemergence herbicidal rating ECHCG ([1]; Rate 0.0315 kg/ha) | Preemergence herbicidal rating CASOB ([3]; rate 0.0625 kg/ha) | Postemergence herbicidal rating AMBEL ([6]; Rate 0.0158 kg/ha) | Preemergence herbicidal rating CHEAL ([7]; rate 0.0625 kg/ha) | Preemergence herbicidal rating ECHCG ([8]; rate 0.0625 kg/ha) | Postemergence herbicidal rating SETVI ([10]; Rate 0.0158 kg/ha) | Postemergence herbicidal rating SETVI ([10]; Rate 0.0315 kg/ha) | Preemergence herbicidal rating IPOHE ([11]; rate 0.0625 kg/ha) | Preemergence herbicidal rating GALAP ([13]; rate 0.0625 kg/ha)
9.0: Postemergence herbicidal rating IPOHE ([5]; Rate 0.0158 kg/ha) | Postemergence herbicidal rating IPOHE ([5]; Rate 0.0315 kg/ha) | Postemergence herbicidal rating IPOHE ([5]; Rate 0.0630 kg/ha) | Preemergence herbicidal rating CHEAL ([7]; rate 0.1250 kg/ha) | Preemergence herbicidal rating CHEAL ([7]; rate 0.2500 kg/ha) | Preemergence herbicidal rating ECHCG ([8]; rate 0.1250 kg/ha) | Preemergence herbicidal rating ECHCG ([8]; rate 0.2500 kg/ha) | Preemergence herbicidal rating IPOHE ([11]; rate 0.2500 kg/ha) | Preemergence herbicidal rating ZEAMX ([12]; rate 0.2500 kg/ha) | Postemergence herbicidal rating ABUTH ([14]; Rate 0.0158 kg/ha) | Postemergence herbicidal rating ABUTH ([14]; Rate 0.0315 kg/ha) | Postemergence herbicidal rating ABUTH ([14]; Rate 0.0630 kg/ha)
3.0: Preemergence herbicidal rating ZEAMX ([12]; rate 0.0625 kg/ha)
